Measurements from patent US12533411B2, “Compositions comprising anti-CD38 antibodies and carfilzomib” (Sanofi-Aventis U.S. LLC, priority 2013, dated 2026).
Entries after “also recorded” stand apart in the source; their conditions may differ.

Experiments:
[1] = test system: NCI-H929 multiple myeloma model; test: NCI-H929 subcutaneous multiple myeloma xenograft mouse model (Example 1); type: in vivo, Balb/c Scid mice; conditions: carfilzomib 2 mg/kg 2×/wk × 3 wk IV; for Activity: D69, hu38SB19 0.5 mg/kg 2×/wk × 2 wk IV
Source text: The subcutaneous multiple myeloma (MM) xenograft mouse models were established using NCI-H929 or RPMI-8226 cell lines. Specifically, 5-6 week old female Balb/c Scid mice were obtained from Jackson Lab. Mice were housed for 7-10 days prior to implantation. Mice were housed in a dedicated room in the UCSF Mt Zion Animal Barrier Facility. NCI-H929 and RPMI-8226 cells were obtained from the German Collection of Microorganisms and Cell Cultures, DSMZ, (Deutsche Sammlung von Mikroorganismen and Zellkulturen), and grown in sterile suspension culture in T225 flasks as follows: NCI-H929: RPMI1640+20% FBS+4 mM L−glutamine+1 mM sodium pyruvate+50 μM mercaptoethanol. RPMI-8226: RPMI1640+10% FBS+4 mM L-glutamine. At the time of implantation, mice were shaved on the right flank and shoulder region and anesthetized with ip avertin. MM cells suspended in serum free RPMI 1640 media diluted 1:1 with Matrigel (BD) at a concentration of 1×10^8 cells per ml were injected sc into the right flank in 100 μL volume (1×10^7 cells) using a 1 ml syringe and 25 g needle. Mice were monitored twice weekly for the appearance of tumors and once tumors were visible, measurements were collected twice weekly for body weight and tumor volume. Electronic balance and calipers were used and data was collected directly into a study management program (Study Director). When the mean tumor volume reached about 150-200 mm^3, the mice were distributed into treatment groups of 8-10 mice per groups and dosing was begun. […] Dose levels for use in combination studies are as follows: Data were collected using electronic balance and calipers using a study management application called StudyLog (Study Director). […] Antitumor activity was determined according to NCI standards based on the ratio of the median tumor volume change of the treated/median tumor volume change of the control×100 (% ΔT/ΔC). Low numerical values for ΔT/ΔC describe stronger anti-tumor activity. Anti-tumor activity is defined as T/C≤40% at minimum. ΔT/ΔC<10% is considered high anti-tumor activity.

[2] = test system: RPMI-8226 xenograft models; test: RPMI-8226 subcutaneous multiple myeloma xenograft mouse model (Example 1); type: in vivo, Balb/c Scid mice; conditions: Day 41, carfilzomib 3 mg/kg qd×2 every wk×3 wk, hu38SB19 3 mg/kg BIW×2 wk
Source text: The subcutaneous multiple myeloma (MM) xenograft mouse models were established using NCI-H929 or RPMI-8226 cell lines. Specifically, 5-6 week old female Balb/c Scid mice were obtained from Jackson Lab. Mice were housed for 7-10 days prior to implantation. Mice were housed in a dedicated room in the UCSF Mt Zion Animal Barrier Facility. NCI-H929 and RPMI-8226 cells were obtained from the German Collection of Microorganisms and Cell Cultures, DSMZ, (Deutsche Sammlung von Mikroorganismen and Zellkulturen), and grown in sterile suspension culture in T225 flasks as follows: NCI-H929: RPMI1640+20% FBS+4 mM L−glutamine+1 mM sodium pyruvate+50 μM mercaptoethanol. RPMI-8226: RPMI1640+10% FBS+4 mM L-glutamine.
At the time of implantation, mice were shaved on the right flank and shoulder region and anesthetized with ip avertin. MM cells suspended in serum free RPMI 1640 media diluted 1:1 with Matrigel (BD) at a concentration of 1×10^8 cells per ml were injected sc into the right flank in 100 μL volume (1×10^7 cells) using a 1 ml syringe and 25 g needle. Mice were monitored twice weekly for the appearance of tumors and once tumors were visible, measurements were collected twice weekly for body weight and tumor volume. Electronic balance and calipers were used and data was collected directly into a study management program (Study Director). […]

[3] = test system: NCI-H929 xenografts; test: NCI-H929 hind-flank xenograft tumor growth (Example 3, FIGS. 12-13); type: in vivo, Balb/c Scid mice; conditions: for tumor growth inhibition, single agent: single-agent administration, NCI-H929 hind-flank model (FIG. 12)
Procedure: Carfilzomib (PR-171) was obtained from Chemie Tek (CT-CARP 98). Carfilzomib was formulated in an aqueous solution of 10% (w/v) sulfobutylether-h-cyclodextrin (Cydex) and 10 mmol/L sodium citrate (pH 3.5), 2 mg/ml stock prepared and frozen at −80° C., diluted daily with vehicle before injection. Carfilzomib was administered weekly qd×2×3 wk (iv).
Test Animals: 5-6 week old female Balb/c Scid mice were obtained from Jackson Lab. Mice were housed for 7-10 days prior to implantation of multiple myeloma (MM) cell lines. Mice were housed in a dedicated room in the UCSF Mt. Zion Animal Barrier Facility.
Xenograft Model: At the time of implantation, mice were shaved on the right flank and shoulder. MM cells were suspended in serum free RPMI 1640 media diluted 1:1 with Matrigel (BD) at a concentration of 1×10^8 cells per ml were injected sc into the right flank in 100 ul volume (1×10^7 cells) using a 1 ml syringe and 25 g needle. Mice were monitored twice weekly for the appearance of tumors and once tumors were visible, measurements were collected twice weekly for body weight and tumor volume. Electronic balance and calipers were used and data was collected directly into a study management program (Study Director). When the mean tumor volume reached approximately 150-200 mm^3, mice were distributed into treatment groups of 8-10 mice per group and dosing was initiated.

[4] = test system: tumor cells; conditions: reported in the literature; cited from earlier work
[5] = test system: tumor cells; test: Direct pro-apoptotic activity on tumor cells without cross-linking; type: cell-based; conditions: preclinical studies

Compound | Activity [1] | Activity ([1]; listed as carfilzomib) | % ΔT/ΔC (D69) ([1]; hu38SB19 0.5 mg/kg 2×/wk × 2 wk IV) | complete regressions [2] | tumor growth inhibition, single agent [3] | induction of apoptosis [4] | elimination of palpable tumors ([3]; hu38SB19 as sole active ingredient, four cumulative doses twice weekly at 3 mg/kg (FIG. 12)) | direct pro-apoptotic activity [5]
CC(C)C[C@H](NC(=O)[C@H](CCc1ccccc1)NC(=O)CN1CCOCC1)C(=O)N[C@@H](Cc1ccccc1)C(=O)N[C@@H](CC(C)C)C(=O)[C@@]1(C)CO1 [Carfilzomib, (S)-4-Methyl-N-((S)-1-(((S)-4-methyl-1-((R)-2-methyloxiran-2-yl)-1-oxopentan-2-yl)amino)-1-oxo-3-phenylpropan-2-yl)-2-((S)-2-(2-morpholinoacetamido)-4-phenylbutanamido)pentanamide] | Inactive | inactive | 68% | 0/10 | not robustly sensitive to single-agent therapy |  |  | 
Daratumumab: CD38 antibody reported to induce apoptosis only after cross-linking with a secondary antibody |  |  |  |  |  | able to induce apoptosis only after cross-linking with a secondary antibody |  | 
hu38SB19: humanized anti-CD38 antibody; VH SEQ ID NO: 66, VL SEQ ID NO: 62 or 64; humanized version of 38SB19 | Inactive |  |  | 2/10 | dose-dependent inhibition of tumor growth; also recorded: dose-dependent anti-tumor effects |  | eliminate palpable tumors in all mice | potent direct pro-apoptotic activity
